Here are results for two compounds from US8901035B2, “Herbicidal compositions comprising 4-amino-3-chloro-5-fluoro-6-(4-chloro-2-fluoro-3-methoxyphenyl) pyridine-2-carboxylic acid or a derivative thereof and cellulose biosynthesis inhibitor herbicides” (Dow AgroSciences LLC, priority 2012, dated 2014).

Holding throughout (assay type): in vivo
Assay [1] has as its system Brachiaria platyphylla (Griseb.) Nash or Urochloa platyphylla (Nash) R.D. Webster (BRAPP). The assay can be described thus: Postemergence foliar-applied herbicidal mixtures, weed control in direct seeded rice (greenhouse). The text has this:
(§1) Seeds or nutlets of the desired test plant species were planted in a soil matrix prepared by mixing a loam or sandy loam soil (e.g., 28.6 percent silt, 18.8 percent clay, and 52.6 percent sand, with a pH of about 5.8 and an organic matter content of about 1.8 percent) and calcareous grit in an 80 to 20 ratio. The soil matrix was contained in plastic pots with a volume of 1 quart and a surface area of 83.6 square centimeters (cm^2). When required to ensure good germination and healthy plants, a fungicide treatment and/or other chemical or physical treatment was applied. The plants were grown for 8-22 days in a greenhouse with an approximate 14 h photoperiod which was maintained at about 29° C. during the day and 26° C. during the night. Nutrients (Peters Excel® 15-5-15 5-Ca 2-Mg and iron chelate) were applied in the irrigation solution as needed and water was added on a regular basis. Supplemental lighting was provided with overhead metal halide 1000-Watt lamps as necessary. The plants were employed for testing when they reached the first through fourth true leaf stage.
(§2) Treatments consisted of the acid or esters of 4-amino-3-chloro-5-fluoro-6-(4-chloro-2-fluoro-3-methoxy-phenyl) pyridine-2-carboxylic acid (Compound A), each formulated as an SC (suspension concentrate), and various herbicidal components alone and in combination. Forms of compound A were applied on an acid equivalent basis.
(§3) Other herbicidal components were applied on an active ingredient basis and included cellulose biosynthesis-inhibiting (CBI) herbicides isoxaben formulated as Gallery® 75DF and indaziflam formulated as Specticle® 20WSP.
(§4) Treatment requirements were calculated based upon the rates being tested, the concentration of active ingredient or acid equivalent in the formulation, and a 12 mL application volume at a rate of 187 L/ha.
(§5) For treatments comprised of formulated compounds, measured amounts of compounds were placed individually in 25 mL glass vials and diluted in a volume of 1.25% (v/v) Agri-Dex® crop oil concentrated to obtain 12× stock solutions. […] Application solutions were prepared by adding an appropriate amount of each stock solution (e.g., 1 mL) and diluted to the appropriate final concentrations with the addition of 10 mL of an aqueous mixture of 1.25% (v/v) crop oil concentrate so that the final spray solutions contained 1.25+/−0.05% (v/v) crop oil concentrate.
(§6) All stock solutions and applications solutions were visually inspected for compound compatibility prior to application. Spray solutions were applied to the plant material with an overhead Mandel track sprayer equipped with a 8002E nozzles calibrated to deliver 187 L/ha over an application area of 0.503 m^2 at a spray height of 18 to 20 inches (46 to 50 cm) above average plant canopy height. Control plants were sprayed in the same manner with the solvent blank.
(§7) The treated plants and control plants were placed in a greenhouse as described above and watered by sub-irrigation to prevent wash-off of the test compounds. After approximately 3 weeks, the condition of the test plants as compared with that of the untreated plants was determined visually and scored on a scale of 0 to 100 percent where 0 corresponds to no injury or growth inhibition and 100 corresponds to complete kill.
(§8) Colby's equation was used to determine the herbicidal effects expected from the mixtures (Colby, S. R. 1967. Calculation of the synergistic and antagonistic response of herbicide combinations. Weeds 15:20-22).
(§9) The following equation was used to calculate the expected activity of mixtures containing two active ingredients, A and B: Expected=A+B−(A×B/100)
(§10) A=observed efficacy of active ingredient A at the same concentration as used in the mixture.
(§11) B=observed efficacy of active ingredient B at the same concentration as used in the mixture.

In assay [2] the test system is Digitaria sanguinalis (L.) Scop. (DIGSA). Described as above.
Excerpt: as §1, §2, §3, §4, §5, §6, §7, §8, §9, §10, §11

Assay [3] deals with Leptochloa chinensis (L.) Nees (LEFCH). The assay is described as above.
Excerpt: as §1, §2, §3, §4, §5, §6, §7, §8, §9, §10, §11

The test system of assay [4] is Ipomoea hederacea (L.) Jacq. (IPOHE). Nature of the assay: Pre-emergence soil-applied herbicidal mixtures for weed control (greenhouse).
Excerpt: (§12) Seeds or nutlets of the desired test plant species were planted in a soil matrix prepared by mixing a loam soil (e.g., 32 percent silt, 23 percent clay, and 45 percent sand, with a pH of about 6.5 and an organic matter content of about 1.9 percent) and calcareous grit in an 80 to 20 ratio. The soil matrix was contained in plastic pots with a volume of 1 quart and a surface area of 83.6 square centimeters (cm^2).
(§13) Treatments consisted of the benzyl ester of 4-amino-3-chloro-5-fluoro-6-(4-chloro-2-fluoro-3-methoxy-phenyl)pyridine-2-carboxylic acid (compound A) formulated as an SC (suspension concentrate) and various herbicidal components alone and in combination. Forms of compound A were applied on an acid equivalent basis.
(§14) Other herbicidal components were applied on an acid equivalent or active ingredient basis and included the cellulose biosynthesis inhibiting herbicides, isoxaben formulated as Gallery® 75DF and indaziflam formulated as Specticle® 20WSP.
as §4
(§15) For treatments comprised of formulated compounds, measured amounts of compounds were placed individually in 25 mL glass vials and diluted in a volume of 1.25% (v/v) Agri-Dex® crop oil concentrate (COC) to obtain 12× stock solutions. […] Application solutions were prepared by adding an appropriate amount of each stock solution (e.g., 1 mL) and diluted to the appropriate final concentrations with the addition of 10 mL of an aqueous mixture of 1.25% (v/v) COC so that the final spray solutions contained 1.25% (v/v) COC.
(§16) All stock solutions and applications solutions were visually inspected for compound compatibility prior to application. Spray solutions were applied to the soil with an overhead Mandel track sprayer equipped with a 8002E nozzles calibrated to deliver 187 L/ha over an application area of 0.503 m^2 at a spray height of 18 inches (46 cm) above average pot height. Control pots were sprayed in the same manner with the solvent blank.
(§17) The treated and control pots were placed in a greenhouse and top watered as needed. When required to ensure good germination and healthy plants, a fungicide treatment and/or other chemical or physical treatment was applied. The pots were maintained in a greenhouse with an approximate 14 hr. photoperiod which was maintained at about 29° C. during the day and 26° C. during the night. Nutrients (Peters® Excel 15-5-15 5-Ca 2-Mg) were applied in the irrigation solution as needed and water was added on a regular basis. Supplemental lighting was provided with overhead metal halide 1000-Watt lamps as necessary. After approximately 4 weeks, the condition of the test plants as compared with that of the untreated plants was determined visually and scored on a scale of 0 to 100 percent where 0 corresponds to no injury or growth inhibition and 100 corresponds to complete kill.
as §8, §9, §10, §11

Assay [5] concerns Setaria faberi Herrm. (SETFA). The description is as above. To be noted: Indaziflam 95 g ai/ha alone.
Excerpt: as §12, §13, §14, §4, §15, §16, §17, §8, §9, §10, §11

The subject of assay [6] is Xanthium strumarium L. (XANST). The description is as above.
Excerpt: as §12, §13, §14, §4, §15, §16, §17, §8, §9, §10, §11

The mark [7] stands for this setting: Compound A Acid 4.38 g ae/ha alone.
Setting [8] is: Compound A Acid 5.3 g ae/ha alone.
[9] abbreviates: Compound A Acid 8.75 g ae/ha alone.
[10] abbreviates: Compound A Acid 10.6 g ae/ha alone.

For the compound `Cc1ccc2c(c1)[C@H](Nc1nc(N)nc(C(C)F)n1)[C@@H](C)C2` (stereo partly drawn) [Indaziflam, N-[(1R,2S)-2,3-dihydro-2,6-dimethyl-1H-inden-1-yl]-6-(1-fluoroethyl)-1,3,5-triazine-2,4-diamine, reference compound], the “Visual Weed Control (%) - 21 DAA Obs” value in assay [1] (Indaziflam 21 g ai/ha alone) is listed as 0%; in assay [1] (Indaziflam 42 g ai/ha alone) it was 15%; in assay [2] (Indaziflam 21 g ai/ha alone), 50%; in assay [2] (Indaziflam 42 g ai/ha alone) it was 45%; in assay [3] (Indaziflam 42 g ai/ha alone), 70%. The “Visual Weed Control (%) - 28 DAA IPOHE Obs” value in assay [4] (Indaziflam 17.5 g ai/ha alone) and in assay [4] (Indaziflam 70 g ai/ha alone) was 40% each time. For the same compound, in assay [5], the “Visual Weed Control (%) - 27 DAA SETFA Obs” value is given as 70%. Moreover, the results for the “Visual Weed Control (%) - 28 DAA XANST Obs” value in assay [6] (Indaziflam 17.5 g ai/ha alone) and in assay [6] (Indaziflam 70 g ai/ha alone) were 25% and 45%, respectively.
Take `COc1c(Cl)ccc(-c2nc(C(=O)O)c(Cl)c(N)c2F)c1F` [Compound A Acid, 4-amino-3-chloro-6-(4-chloro-2-fluoro-3-methoxyphenyl)-5-fluoropyridine-2-carboxylic acid]: the “Visual Weed Control (%) - 20 DAA Obs” value turned out to be 75% in assay [1] (setting [7]); 80% in assay [1] (setting [9]); 45% in assay [2] (setting [9]); 50% in assay [2] (Compound A Acid 17.5 g ae/ha alone); 15% in assay [3] (setting [7]). Also, the “Visual Weed Control (%) - 21 DAA Obs” value in assay [1] (setting [8]) came to 60%; in assay [1] (setting [10]), 85%; in assay [2] (setting [8]), 20%; in assay [2] (setting [10]), 30%; in assay [2] (Compound A Acid 21.2 g ae/ha alone) it was 35%.
